What all share (assay): NCI-60 cell line screen, 48 h
In assay [1] the test system is 786-0 renal.
Assay [2] concerns SF-539 CNS.
Assay [3] relates to NCI-H460 lung.
In assay [4] the test system is UACC-257 melanoma.
The subject of assay [5] is SNB-75 CNS.
The subject of assay [6] is RPMI-8226 leukemia.
Assay [7] deals with COLO 205 colon.
In assay [8] the test system is MCF7 breast.
For assay [9], the system named is A498 renal.
The test system of assay [10] is LOX IMVI melanoma.

Values joined by “and” are separate entries in the source; they are usually repeats but may differ in a detail not shown here. Equal values may be shown once.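 All cell lines were grown in 96-well plates and treated with compound for 48 hours. At the GI50, growth is halved. At the TGI there is no net growth.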 A value given as a limit tells only on which side of the number the result lay.

On to `COc1cc2c(NCCCCCCO[N+](=O)[O-])ncnc2c(OC)c1OC`, for which the TGI was determined as 69.2 µM in assay [1]; 71.1 µM in [2]; 69.8 µM in assay [3]; 36.5 µM in assay [4]; 99.3 µM in [5]; 32.2 µM in [6]. In addition, the TGI in [7] was 51.6 µM; in assay [8] it was 71.4 µM; in assay [9], 52 µM; in assay [10], 49.3 µM.
Consider `Clc1cccc(NC=Nc2ccc(-c3nc4ccccc4s3)cc2)c1`, for which the GI50 was 10.6 µM in assay [1]; 17.8 µM in assay [2]; 9.44 µM in [3]; 16.1 µM in [4]; 14.4 µM in [6]; 12.2 µM in assay [7]. The results for the GI50 in assay [8] and in assay [10] were 9.44 µM and 9.46 µM, respectively. Moreover, the TGI is 18.6 µM in assay [1]; 34.1 µM in assay [2]; 23.3 µM in assay [3]; 36.6 µM in assay [4]; > 50 µM in [6]; 39.9 µM in [7]. Besides, the TGI in [8] stood at 35.6 µM; in [10], 17.5 µM.
Regarding `CN1CCN(Cc2ccc(NC(=O)c3cncc(C#Cc4cnc(N)c5ccccc45)c3)cc2C(F)(F)F)CC1`, the GI50 was 0.423 µM in [1]; 0.38 µM in [2]; 0.158 µM in assay [3]; 0.605 µM in assay [4]; 0.443 µM in assay [5]; 0.441 µM in assay [6]. For the same compound, the GI50 was 0.405 µM in assay [7], 0.371 µM in [8], 0.299 µM in [9] and 0.387 µM in [10]. Besides, the TGI in assay [1] was found to be 0.89 µM; in [2], 0.792 µM; in assay [3], 0.581 µM; in assay [4], 1.27 µM; in assay [5], 0.877 µM; in assay [6], 1.41 µM. Also, the TGI in [7] worked out at 0.948 µM; in assay [8], 0.892 µM; in [9] it was 1.14 µM; in assay [10] it was 0.837 µM.
With `CC1(C)N=C(N)N=C(N)N1c1ccc(CCCCc2ccc(S(=O)(=O)F)cc2Cl)c(Cl)c1`, the TGI in assay [1] is 76.9 µM; in assay [2], 13.9 µM; in assay [3], 80.8 µM; in [4], 64 µM; in assay [5], 54.7 µM; in assay [7], 78 µM. Moreover, the results for the TGI in assay [8], in assay [9] and in assay [10] were 28.7 µM, 261 µM and 43.9 µM, respectively.
With `O=C1c2ccccc2-c2c1c1cc3c(cc1c(=O)n2CCCCl)OCO3`, the GI50 in [1] was 18.4 µM; in [2], 51.4 µM; in assay [3], 97.1 µM; in assay [5], 0.58 µM; in assay [6], 78.6 µM; in [8], 17.7 µM. Besides, the GI50 in assay [9] was 59.8 µM; in assay [10], 39.7 µM. Besides, the TGI in assay [1] was 45.7 µM; in assay [2], > 100 µM; in [3], > 100 µM; in [5], > 100 µM; in assay [6], > 100 µM; in assay [8], > 100 µM. Moreover, the TGI in assay [9] and in assay [10] was > 100 µM throughout.
Turning to `CCCNC(=O)OCc1c(COC(=O)NCCC)c(-c2ccc(Cl)c(Cl)c2)n2c1CCC2`, the TGI worked out at 11.4 µM in [1]; 11.3 µM in assay [2]; 17.2 µM in assay [3]; 20.1 µM in assay [4]; 24.4 µM in assay [6]; 13.2 µM in assay [7]. The TGI in assay [8] is 19.8 µM; in [9] it was 3.24 µM; in assay [10], 15.8 µM.
For `O=C1Oc2cc3c(c4cccc1c24)OCN(c1ccc(Cl)cc1)C3`, the TGI is 34.5 µM in assay [1]; 23.9 µM in assay [2]; > 100 µM in assay [3]; > 100 µM in [4]; > 100 µM in assay [5]; 42.1 µM in assay [6]. In addition, the TGI in assay [7] is > 100 µM; in assay [9], > 100 µM; in assay [10], 17.7 µM.
Turning to `NNC(=O)c1cnn(-c2ccnc3c(C(F)(F)F)cccc23)c1N`, the GI50 in assay [1] is > 100 µM; in [2] it was > 100 µM; in [3], > 100 µM; in assay [4], > 100 µM; in assay [5] it was 99.7 µM; in assay [6], > 100 µM. Further, the GI50 in assay [7], in assay [8] and in assay [10] was > 100 µM in each case. Further, the TGI in assay [1], in [2], in [3], in assay [4], in assay [5] and in [6] was > 100 µM each time. In addition, the TGI in assay [7], in assay [8] and in assay [10] was > 100 µM in each case.
Consider `O=C1NC(=O)C2C(=O)NC(=O)C1C2(c1ccccc1)c1ccc(Cl)cc1` (stereo unspecified), for which the TGI in assay [1], in assay [2], in [3], in assay [4], in [5] and in assay [6] was > 100 µM each time. For the same compound, the TGI in [7], in assay [9] and in [10] was > 100 µM each time.
As for `O=C(O)CCCc1ccc(N(CCCl)CCCl)cc1`, the GI50 in assay [1] was 7.67 µM and 35.7 µM; in assay [2], 7.28 µM and 18.2 µM; in [3], 2.13 µM; in assay [4] it was 26 µM and 148 µM; in [6], 13 µM; in assay [7], 22.6 µM and 201 µM. Moreover, in assay [9], the GI50 was 28.3 µM. Further, the TGI in assay [1] was 28.4 µM and 181 µM and 133 µM; in [2], 26.9 µM and 99.4 µM and 89.6 µM; in [3], 44.5 µM and 228 µM; in assay [4], 60.7 µM and 298 µM and 306 µM; in [6], 81.1 µM and 447 µM and 335 µM; in assay [7] it was 45.9 µM and 271 µM and 333 µM. For the same compound, the TGI is 379 µM and 431 µM in [8]; 48.4 µM and 302 µM in assay [9]; 31.9 µM and 183 µM and 265 µM in [10].
With `CC1=CCCC(OC(N)=O)C1` (stereo unspecified), the TGI in assay [1], in assay [2], in [3], in [4], in assay [5] and in [6] was > 100 µM in each case. The TGI in [7], in assay [9] and in assay [10] was > 100 µM in each case.

Values taken from PubChem BioAssay (NCI).
